Results: patent publication US7842702B2, “Treatment for irritable bowel syndrome” (Astellas Pharma Inc., priority 2007, dated 2010)
Values after ≈ are worked out from the molar mass of the structure shown.

How the values were obtained:
[1] = system: restraint stress-induced defecation in the acetic acid-induced IBS model; assay: Restraint stress-induced defecation in the acetic acid-induced IBS model; assay type: in vivo, rat; settings: for ED50: Rattus norvegicus, male SD rats, 4% acetic acid IBS model, 30 min before restraint, stools for 1 hour; for ED50 / inhibitory effects on restraint stress-induced defecation (dose dependence): compound 1 po, cromolyn ip; for inhibitory effects on restraint stress-induced defecation (dose dependence): FIGS. 2 and 3
Procedure: (§1) Preparation of an IBS model was carried out by the following method with reference to the method of Jun-Ho La et al. (World J. Gastroenterol., 2003, vol. 9 (12), pp. 2791-2795). Male Sprague-Dawley (SD) rats or Wistar rats after an overnight fast were used. Colitis was induced by intracolonic instillation of 1 ml 4% acetic acid at 8 cm proximal to the anus for 30 seconds under light ether anesthesia. Then, 1 ml physiological saline was instilled to dilute the acetic acid and flush the colon twice. Rats were recovered from colitis for 6 days, and used for experiments shown in Examples 2 and 3 at 7 days after induction of colitis as “IBS rat (4% acetic acid)”. In addition, rats received physiological saline instead of acetic acid was used as a “control group (saline)”.
Cromolyn was used by dissolving it in physiological saline, and compound 1 and ketotifen were used by dissolving them in 0.5% methylcellulose aqueous solution, respectively. Each compound was intraperitoneally administered (cromolyn) or orally administered (compound 1 and ketotifen) to male SD rats under no fasting at 7 days after the 4% acetic acid treatment or physiological saline treatment. The animals were put into restraint stress cages (product name: KN-468 (B), mfd. by Natsume Seisakusho) 30 minutes thereafter and the number and weight of the stools excreted for 1 hour were measured (“stress”). On the other hand, the normal group was put into individual cage and the number and weight of the stools excreted for 1 hour were measured in the same manner (“normal”). Results of the restraint stress-induced defecation in the agent-nonadministered group are shown in FIG. 1, and the results of agent-administered groups in FIGS. 2 to 4 respectively.

[2] = system: rat abdominal mast cells; assay: Release of histamine by an antigen-antibody reaction using rat abdominal mast cells (degranulation); assay type: cell-based; settings: Mast cell, fluorescent method with o-phthalaldehyde, read-out: Degranulation (mast cells) (IC50 μg/ml)
Procedure: In addition, the inhibitory effects of compound 1 and cromolyn on the release of histamine by an antigen-antibody reaction using rat abdominal mast cells were measured by a fluorescent method which is a modified method of Shore et al. (The Journal of Pharmacology and Experimental Therapeutics, 1959, vol. 127, pp. 182-186) with o-phthalaldehyde.

[3] = system: abdominal contractions caused by colorectal distention in the acetic acid-induced IBS model; assay: Viscerosensory response to colorectal distention (number of abdominal contractions) in the acetic acid-induced IBS model; assay type: in vivo, rat; settings: for inhibitory effects on abdominal contractions, concomitant use with alosetron: alosetron 0.1 mg/kg, po + compound 1 0.01 mg/kg, po or cromolyn 20 mg/kg, ip, FIG. 8
Procedure: as §1
Male Wistar rats under no fasting at 7 days after 4% acetic acid treatment or physiological saline treatment were used. Under light ether anesthesia, a latex balloon of 6 cm in length was inserted intra-anally until the end of the balloon was 2 cm inside the rectum. The catheter connecting from the balloon was fixed to the tail base with a tape and connected to a pressure transducer via a three-way cock. After restoration from the ether anesthesia in a cage (23.5×19×19 cm), nociceptive behavior (the number of abdominal contractions) to colorectal distention (15, 30, 45, 60 mmHg) applied stepwise at 5 minute intervals was measured. […] In this connection, each compound was administered 30 minutes before the colorectal distention.

[4] = system: spontaneous defecation in mice; settings: mouse, in vivo
Procedure: Doxantrazole was used by dissolving it in 5% (w/v) NaHCO3 aqueous solution, and compound 1 was used by dissolving it in 0.5% methylcellulose aqueous solutions Male ddY mice under no fasting were reared in individual cages from the evening of the previous day of the experiment. On the day of the experiment, each compound was administered intraperitoneally (doxantrazole) or orally (compound 1), and the number of stools spontaneously excreted for 2 hours after the initiation of the experiment was measured.

[5] = system: IBS patients; settings: cited from earlier work

Compound	IC50 [2] [µg/mL]	effect on the spontaneous defecation in mice [4]	ED50 [1] [mg/kg]	inhibitory effects on restraint stress-induced defecation (dose dependence) [1]	inhibitory effects on abdominal contractions, concomitant use with alosetron [3]	further results
CN1CCC(=C2c3ccccc3CC(=O)c3sccc32)CC1 [ketotifen]						inhibitory effects on restraint stress-induced defecation at the maximum ([1]; po, maximum effect, FIG. 4): about 30%
Cn1cc(C(=O)[C@@H]2CCc3nc[nH]c3C2)c2ccccc21 [ramosetron]						inhibitory effects on abdominal contractions, ramosetron alone ([3]; 0.01 mg/kg, po): maximal inhibitory effects
Cc1[nH]cnc1CN1CCc2c(c3ccccc3n2C)C1=O [alosetron]						improvement rate for abdominal symptoms and diarrhea [5]: about 50%; inhibitory effects on abdominal contractions, alosetron alone ([3]; 0.1 mg/kg, po): maximal inhibitory effects

Further lines, with some results ahead:

IC50 [2] [µg/mL]	effect on the spontaneous defecation in mice [4]	Compound	ED50 [1] [mg/kg]	inhibitory effects on restraint stress-induced defecation (dose dependence) [1]	inhibitory effects on abdominal contractions, concomitant use with alosetron [3]	further results
2.2		O=C(O)c1cc(=O)c2c(OCC(O)COc3cccc4oc(C(=O)O)cc(=O)c34)cccc2o1 [Cromolyn, sodium cromoglycate]	19.9	in a dose-dependent manner	reinforcement of the effect was not found	inhibition of restraint stress-induced defecation at 100 mg/kg, ip ([1]; 100 mg/kg, ip): inhibited it almost completely
0.0074 (≈ 0.0212 µM)	no effect	O=C(Nc1nnn[nH]1)c1cc(Oc2ccccc2)c2ccccn2c1=O [Compound 1, N-(1H-tetrazol-5-yl)-1-phenoxy-4H-quinolizin-4-one-3-carboxamide]	0.0071	in a dose-dependent manner	additively	inhibition of restraint stress-induced defecation at 1 mg/kg, po ([1]; 1 mg/kg, po): inhibited it almost completely; inhibitory effects on abdominal contractions, concomitant use with ramosetron ([3]; compound 1 0.01 mg/kg, po + ramosetron 0.01 mg/kg, po, FIG. 7): additively; inhibitory effects on the abdominal contractions caused by the colorectal distention ([3]; male Wistar rats, 0.01 and 1 mg/kg, po, 30 min before distention, FIG. 6): dose-dependent inhibitory effects
	inhibitory tendency	O=C1c2ccccc2S(=O)(=O)c2cc(-c3nnn[nH]3)ccc21 [doxantrazole]				
